Experimental data from patent US11136320B2, “Fused ring derivative used as FGFR4 inhibitor” (JACOBIO PHARMACEUTICALS CO., LTD., priority 2019, dated 2021).

Legend:
[1] = test system: Hepatoma cell Hep3B (high expression of FGFR4 and FGF19); assay: Hepatoma cell proliferation inhibition experiment (MTS method); type: cell-based; conditions: Homo sapiens, Hep3B; 120 h incubation; read-out: Hep3B(IC50 μM)
Source text: In this experiment, the MTS method was used to test the inhibitory effect of the compounds on the proliferation of Hepatoma cell Hep3B (high expression of FGFR4 and FGF19), and the half inhibitory concentration IC50 of the compounds to Hep3B was obtained. The Hep3B cell line was purchased from ATCC, and the complete culture medium of the Hep3B cell line was MEM+10% FBS+1% PS. MEM cell culture medium, fetal bovine serum, and trypsin were purchased from Gibco, cell culture flasks were purchased from Greiner, and disposable Cell Counting Plate and Taittinger Blue Solution were purchased from Bio-Rad.
(1) 100 μl Hepatoma cell Hep3B suspension was seeded in a 96-well cell culture plate, and the density of each well was 2.0×10^4 cells/ml.
(3) A mixture of MTS (3-(4,5-dimethylthiazol-2-yl)-5-(3-carboxymethoxyphenyl)-2-(4-sulfophenyl)-2H-tetrazolium)/PMS (phenazine methosulfate) was added into each well for coloration, and MTS/PMS in the mixture was at a ratio of 20:1 (ml:ml). 30 μl of the mixture was added into each well of the culture plate above mentioned in step (2), then the culture plate was incubated for 3 h in the incubator.
(5) The inhibition rate was calculated by the […];
(6) According to the inhibition rate of the different concentrations, the IC50 values of the compounds were obtained by curve fitting.

[2] = PK/PD of NOD-SCID mouse (drug concentration in blood and in tumors); type: in vivo; conditions: NOD-SCID, mouse, po, 50 mg/kg, p.o. (50 mg/kg); for AUC(0-t): read-out: AUC0-6 h; for concentration at 4 h / concentration at 6 h: tumor
Procedure: This experiment conducted when the pharmacological experiment in vivo was performed by gavage administration, wherein, the blood samples and tumor samples were taken at different time points to detect drug concentration in blood and drug concentrations in tumors.
(1) Mode of administration: gavage administration;
(2) Dosage: 50 mg/kg in the gavage administration;
Three mice were sampled at each sampling point;
(4) Blood sample collection: 200 μL of orbital blood was collected at sampling time point for each blood sample. After anticoagulation with heparin, the blood was centrifuged at 5500 rpm for 10 mins. 60 μL of the supernatant was taken and put it into the refrigerator at −80° C. for waiting for testing.
Tumour sample collection: 200-300 mg of each tumor tissue was taken. The tumor weight was marked, quickly freezed in liquid nitrogen and placed into a refrigerator at −80° C. for waiting for testing.
Tumour sample processing: pure water was added into the tumor sample according to a ratio of […] between the weight of the tumor sample and the volume of pure water and then it was homogenized. The homogenate was stored at −90° C. to −60° C. until the sample was analyzed. After 5 μL of acetonitrile/water (v/v=1:1) was added into 50 μL of tumor sample homogenate, 200 μL of acetonitrile (containing Dexamethasone 100 ng/ml as internal standard, or containing Verapamil 2 ng/ml as internal standard) was added. After protein precipitation, the resulting mixture was vortexed for 2 mins at 4° C. with 4600 g, and then centrifuged for 15 mins to obtain the supernatant. 100 μL of the supernatant was taken and added into 200 μL of deionized water. 5500 LC/MS/MS analyser was used for sample injection and analysis, after vortexing for homogeneity. The conditions for chromatographic separation and mass spectrometric analysis were as follows: […]

[3] = test system: Hep3B; assay: Pharmacodynamic in vivo, Hep3B model tumor growth inhibition; design: species or system NOD-SCID mice; conditions: 60 mg/kg QD, gavage
Source text: The Hep3B cell line was purchased from ATCC; MEM cell culture medium, fetal bovine serum, and trypsin were purchased from Gibco; cell culture flasks were purchased from Greiner; and disposable Cell Counting Plate and taittinger Blue Solution Purchased from Bio-Rad. The disposable sterile syringe was purchased from Changzhou Jinlong Medical Plastic Instrument Co., Ltd, eye surgical scissors and eye surgical forceps were purchased from Shanghai Medical Instrument (Group) Co., Ltd. Surgical Instrument Factory, and 6-8 week old female NOD-SCID mice were purchased from Vitalivar.
a. One strain of Hep3B cells was taken out from the cell bank and MEM medium (MEM+10% FBS+1% PS) was used to recover the cells. The resuscitated cells were placed in a cell culture flask (the wall the flask was marked with the cell type, date, cultivator's name), and the cell culture flask was placed in a CO2 incubator (the temperature of the incubator was 37° C. and the CO2 concentration of the incubator was 5%);
b. When the cells covered about 90% of the bottom of the culture flask, passage was conducted. the cells were continued to cultivate in a CO2 incubator after passage. The above process was repeated until the number of the cell satisfied the requirements of pharmacodynamic in vivo;
c. The cultured cells were collected and counted using a BIO-Rad TC20 cell counter. According to the counting results, the cultured cells were resuspended with PBS and matrix gel (1:1) to obtain a cell suspension (density 5×10^7/ml), and the cell suspension was placed in an ice box for later use.
a. The cells were mixed well before seeding, and 0.5 ml of cell suspension was taken with a 1 ml syringe and bubbles in the cell suspension were removed. The syringe with the cell suspension was place on an ice pack for later use.
b. The NOD-SCID mice were set with the left hand, and the skin on the right back of the mice was disinfected with 75% alcohol. The inoculation was beginning after 30 seconds.
c. During inoculation, 1 mL syringe was on the right hand, and the cell suspension of Hep3B was inoculated subcutaneously into the right shoulder of the right back of the mouse at 0.1 mL/mouse. At inoculation interval, the syringe was placed on an ice pack and the mice were inoculated sequentially.
d. According to the tumor growth, the tumor was measured and the tumor size was calculated on the 12-15 days after inoculation.
Tumor volume calculation: tumor volume (mm^3)=length (mm)×width (mm)×width (mm)/2
e. When the tumors grew to an average volume of 100-150 mm^3, the mice were randomly divided into two groups according to tumor size and the weight of the mouse. […]
f. […] Tumors were measured and the mice were weighed twice a week after administration. […]

[4] = PK analysis of rats; type: in vivo; conditions: rat, plasma, po, SD rats, p.o. (10 mg/kg)
Procedure: In the present invention, the pharmacokinetics experiment of the compounds in rats was performed using the SD rats (Vitolihua).
(1) Mode of administration: single gavage administration and intravenous injection administration.
(2) Dosage: 10 mg/kg in the gavage administration, 3 mg/kg in the intravenous injection administration.
Gavage administration: before administration, 15 min, 30 min, 1 h, 2 h, 4 h, 6 h, 8 h, 24 h; […]
(4) Sample processing: 200 μL of orbital blood was collected at each sampling time point. After anticoagulation with heparin, the blood was centrifuged at 5500 rpm for 10 min, and 60 μL of the supernatant was taken and put into the refrigerator at −80° C. for waiting for testing.
Samples obtained after administration of Compound 1 were tested using 4000 LC-MS/MS analyzer, wherein, the chromatographic separation conditions for testing were:
Samples obtained after administration of Compound 7 were tested using 4000 LC-MS/MS analyzer, wherein, the chromatographic separation conditions for testing were:
Samples obtained after administration of Compound 16 were tested using 4000 LC-MS/MS analyzer, wherein, the chromatographic separation conditions for testing were: […]

COCCNc1cc(NC(=O)N2CCCc3cc(CN4CCN(C)CC4=O)c(C=O)nc32)ncc1C#N [Reference compound, roblitinib, reference compound]
IC50 [1]: 0.024 µM | AUC(0-inf) ([2]; plasma, Hep3B model): 29100 ng·h/mL | Cmax ([2]; plasma, Hep3B model): 6200 ng/mL | Tmax ([2]; plasma, Hep3B model): 1 h | half-life ([2]; plasma, Hep3B model): 3.13 h | AUC(0-t) ([2]; plasma, Hep3B model): 20200 ng·h/mL | Cmax ([2]; plasma, SNU878 model): 5430 ng/mL | Tmax ([2]; plasma, SNU878 model): 4 h | AUC(0-t) ([2]; plasma, SNU878 model): 20400 ng·h/mL | concentration at 4 h ([2]; Hep3B model): 64.4 ng/g | concentration at 6 h ([2]; Hep3B model): 44.1 ng/g | concentration at 4 h ([2]; SNU878 model): 3560 ng/g | concentration at 6 h ([2]; SNU878 model): 1030 ng/g | TGI % [3]: 97.7% | AUC(0-t) ([4]; read-out: Curve area AUC0-24 h): 1590 ng·h/mL | Cmax ([4]; read-out: Drug concentration in blood Cmax): 350 ng/mL
